Experimental data taken from patent US20220017478A1, “2-BENZOYLAMINOBENZAMIDE DERIVATIVES AS BCL-3 INHIBITORS” (University College Cardiff Consultants Limited, priority 2013, published 2022).
pIC50: −log10 of the molar value. Like-named read-outs stand apart in the source and are kept apart here.

Columns and labels:
Bcl-3-p50 binding = target: T1, Bcl-3-p50 binding (Homo sapiens, UniProt P20749); test: Indirect sandwich ELISA of Bcl-3 binding to p50 in lysates of treated HEK-293 cells overexpressing FLAG-tagged Bcl-3; assay type: cell-based; details: for IC50: Table 3, read-out: ELISA assay (μM) IC50
T1 construct: expressed in transfected cells; host or cells: HEK-293
T1 sequence (P20749 1-454): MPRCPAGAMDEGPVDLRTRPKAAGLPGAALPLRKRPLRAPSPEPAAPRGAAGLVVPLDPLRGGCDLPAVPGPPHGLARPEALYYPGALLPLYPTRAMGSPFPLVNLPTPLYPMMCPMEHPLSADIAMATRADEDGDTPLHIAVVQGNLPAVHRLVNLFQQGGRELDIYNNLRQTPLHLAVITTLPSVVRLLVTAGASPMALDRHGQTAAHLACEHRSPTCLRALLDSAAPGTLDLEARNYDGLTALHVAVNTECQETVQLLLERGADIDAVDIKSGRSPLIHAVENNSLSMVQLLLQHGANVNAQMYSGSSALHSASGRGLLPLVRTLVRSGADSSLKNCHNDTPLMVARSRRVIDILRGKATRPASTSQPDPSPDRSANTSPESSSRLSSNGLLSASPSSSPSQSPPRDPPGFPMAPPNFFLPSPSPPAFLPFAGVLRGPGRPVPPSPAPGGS
Procedure: Proteins were extracted from cells in order to be analyzed by ELISA assay. The media from tissue culture flask was removed and cells were rinsed with ice cold PBS (Sigma, Dorset, UK). Appropriate volume of PBS (5 ml for T25, 10 ml for T80) was added into the flask and cells were removed with a cell scraper (Nunc, Leics, UK). The cell suspension was then transferred to 15 ml tubes and centrifuged at 11000 rpm for 5 min at room temperature. Resulting pellet was used for protein extraction immediately or stored at −20° C. prior use.
Non-denatured protein extract was prepared using non-denaturing lysis buffer (Table 1) and used to analyze protein-protein interaction.
Complete mini protease inhibitor tablets (Roche, Welwyn Garden City, UK), 10 mM sodium fluoride (Fluka Biochemika), 1 mM sodium pyrophospate and 1 mM sodium orthovanadate (Sigma, Dorset, UK) were added to the buffer prior use. Cell pellets were resuspended in appropriate volume of non-denaturing buffer (50-200 μl) and cultivated on ice 5 min. Cell suspensions were transferred to microcentrifuge tubes and sonicated on ice (3 times 5 s) and centrifuged at 10000 rpm for 10 min at 4° C. The resultant supernatant was used immediately or stored at −20° C. until required.
In our case, ELISA assay was used to detect either the amount of Flag-Bcl-3 protein alone or Flag-Bcl-3 in complex with p50, using indirect or sandwich ELISA respectively.
For Indirect and sandwich ELISA assay, Non-denaturing cell lysate (above) was diluted with TBS/T [tris buffer saline (TBS, Calbiochem, Merck) supplemented with 0.5% v/v Tween (Sigma, Dorset, UK)] to a concentration of 0.5-1 μg/μl and 100 μl was added onto ANTI-Flag coated flat bottom ELISA plates (Sigma, Dorset, UK). Samples were added in triplicates, while TBS/T was used as a negative control. The plate was cultivated at 37° C. for an hour followed by 3×200 μl washes with TBS/T. Primary antibodies, either Bcl-3 (Santa Cruz Biotech) for indirect ELISA and p50 for sandwich ELISA (Abcam) were added in known volumes (125 μl) and concentrations to each well, cultivated covered from light for an hour at room temperature. Another three 200 μl washes with TBS/T were performed before cultivation with alkaline phospatase (AP) conjugated secondary antibody. Meanwhile, para-nitrophenylphosphate solution (pNPP, Santa Cruz Biotechnology, California, USA) was prepared according to manufacturer's instructions (5 mg of pNPP disodium salt in 5 ml of pNPP substrate buffer). The solution was mixed well and covered from light prior to use. pNPP is a substrate of choice for use with alkaline phosphatase and produces a soluble end product that is yellow in colour. Therefore colour changes can be measured and represent the amount of AP present. After cultivation with secondary antibody, the wells were washed 3×200 μl. TBS/T, pNPP solution was added (50 μl/well) and cultivated for an hour covered from light at room temperature. The reaction was stopped by addition of 3N NaOH (20 μl/well) and the colorimetric changes were measured at 405 nm using a plate reader.
HEK-293 cells overexpressing Bcl-3 were cultivated with Compound 1a over a range of molarities for 24 hrs before cell lysates were obtained under non-denaturing conditions. […] Indirect ELISA assay was performed using Bcl-3 antibody to show an equal loading across samples treated with compound 1a (FIG. 2B) and controls (FIG. 2C).
HEK-293 Bcl-3 WT cells were cultivated with selected compounds over a range of molarities for 24 hrs before cell lysates were obtained under non-denaturing conditions. The dose response curve for selected analogues was generated using GraphPad software (FIG. 8A-D).

[1] = Cell Titre Blue viability assay, MDA-MB-231; details: human, MDA-MB-231 cells
Procedure: The viability of cells at experimental endpoints for particular assays was determined using the Cell Titre Blue reagent (Promega, Southampton, UK). This reagent measures the cellular metabolic activity using resazurin as an indicator dye. Viable cells, therefore metabolically active, will reduce resazurin into highly fluorescent resofurin. The resulting fluorescence levels are measured and indicate cell viability.
Cells were plated at low confluency into 96 well plates in 100 μl of complete growth media in triplicates and were incubated at 37° C. in 5% CO2 for the desired test exposure period. For each 100 μl of media in 96 well plates, 20 μl Cell Titre Blue reagent was added followed by incubation for an hour at 37° C. in 5% CO2. Fluorescence was then measured by setting excitation/emission wavelengths to 560/590 nm on a Flurostar Optima plate reader (BMG tabtech, Bucks, UK).
Cell toxicity was evaluated using the Cell Titre Blue viability assay over a range of molarities for 24 hrs.
Selected compounds were dissolved in DMSO and diluted to a highest concentration of 10 μM (0.1% DMSO). In all assays, a DMSO control was always used. Selected compounds were tested for cell toxicity in HEK-293 and MDA-MB-231 cells before being used in cell-based assays. Cell toxicity was evaluated using the Cell Titre Blue viability assay over a range of molarities for 24 hrs

[2] = HEK-293 overexpressing Bcl-3, 24 hrs, read-out: IC50 Indirect Sandwich ELISA (Bcl-3-p50 binding)

Row | SMILES | pIC50 (Bcl-3-p50 binding; HEK-293 Bcl-3 WT, 24 hrs, IC50 could not be established, calculated with GraphPad, read-out: IC50 Indirect Sandwich ELISA, calculated from the dose response curve) | viability at 24 h, 10 µM [1] [%] | pIC50 (Bcl-3-p50 binding; [2]) | IC50 (Bcl-3-p50 binding) [µM] | EC50 at 24 h [1] [µM] | viability at 24 h, 1 mM [1] [%]
1 | O=C(Nc1ccccc1C(=O)NCCCN1CCOCC1)c1ccccc1F [Compound 2a] | 4.82 | > 70 | – | – | – | –
2 | COc1ccc(C(=O)Nc2ccccc2C(=O)NCCN2CCOCC2)cc1 [Compound 1f, 2-[(4-methoxybenzoyl)amino]-N-(2-morpholin-4-ylethyl)benzamide] | – | > 70 | 7.22 | 0.0617 | 781 | –
3 | O=C(Nc1ccccc1C(=O)NCCN1CCOCC1)c1ccccc1F [Compound 1a, 2-[(2-fluorobenzoyl)amino]-N-(2-morpholin-4-ylethyl)benzamide] | – | > 70 | 6.41 | – | – | 72
4 | COc1cccc(C(=O)NCCN2CCOCC2)c1NC(=O)c1ccccc1F [Compound 3a, 2-[(2-fluorobenzoyl)amino]-3-methoxy-N-(2-morpholin-4-ylethyl) benzamide] | – | > 70 | 6.92 | 0.0119 | – | –
